We go through 6 molecules from US20260317313A1, “DNA Polymerase Theta Inhibitors Containing Non-Saturated 5-Membered Heterocyclic Rings and Use Thereof” (Thomas Jefferson University, priority 2022, published 2026).

The subject of one experiment is BRCA2-null DLD1 cells. The experiment is described as follows: Survival of BRCA2-null DLD1 cells. The format is cell-based. The settings on record: as compared to BRCA2-WT DLD1 cells; n=3.
The next experiment has as its system BRCA2-WT DLD1 cells. Nature of the experiment: Survival of BRCA2-WT DLD1 cells. The note with it: n=3. It counts as cell-based.
The target of experiment [1] is T1, recombinant human Polq polymerase domain (residues 1792-2590) (Homo sapiens, UniProt O75417).
T1 sequence (O75417 1792-2590): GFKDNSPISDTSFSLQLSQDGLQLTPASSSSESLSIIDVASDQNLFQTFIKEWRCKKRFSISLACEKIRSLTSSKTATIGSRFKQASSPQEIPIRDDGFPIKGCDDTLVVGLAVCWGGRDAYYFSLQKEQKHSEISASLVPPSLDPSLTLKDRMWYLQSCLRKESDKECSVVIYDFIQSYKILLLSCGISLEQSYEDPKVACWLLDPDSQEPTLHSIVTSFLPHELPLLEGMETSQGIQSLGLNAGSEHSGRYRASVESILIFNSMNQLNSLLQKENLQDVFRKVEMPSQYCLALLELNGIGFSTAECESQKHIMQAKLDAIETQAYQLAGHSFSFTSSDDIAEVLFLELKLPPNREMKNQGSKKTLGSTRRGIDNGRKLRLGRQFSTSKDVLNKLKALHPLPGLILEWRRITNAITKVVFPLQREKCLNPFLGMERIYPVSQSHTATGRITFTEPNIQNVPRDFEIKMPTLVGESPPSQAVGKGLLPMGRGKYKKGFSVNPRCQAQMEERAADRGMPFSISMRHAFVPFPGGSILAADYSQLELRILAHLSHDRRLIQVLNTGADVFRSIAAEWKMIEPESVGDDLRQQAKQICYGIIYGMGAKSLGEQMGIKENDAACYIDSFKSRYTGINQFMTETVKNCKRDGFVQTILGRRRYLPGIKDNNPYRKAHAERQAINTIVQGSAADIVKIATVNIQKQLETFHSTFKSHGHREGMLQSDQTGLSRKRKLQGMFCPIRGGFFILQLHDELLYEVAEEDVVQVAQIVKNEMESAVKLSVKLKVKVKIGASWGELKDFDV
The experiment is described as follows: Cy5 fluorescence assay of Polq polymerase enzymatic activity. It counts as biochemical. The settings on record: 60 nM primer-template, 50 uM dNTPs, 37° C., 18 min, 2.5% DMSO, triplicate. Here is the method: The following Cy5 fluorescence assay was used to measure the ability of compounds to inhibit Polq polymerase domain in vitro. The fluorescent based assay was performed as follows: 60 nM of the pre-annealed primer-template containing a 5′ Cy5 fluorophore conjugated template strand (SEQ ID NO 6: 5′-/5Cy5/ […] GGACAG-3′), a downstream complementary oligo conjugated with a 3′ Blackhole quencher (SEQ ID NO 7: 5′-CTAAGCTCACAGTG/3IAbRQSp/-3′) and a primer strand (SEQ ID NO 8: 5′-CTGTCCTGCATGATG-3′) was mixed with 50 uM 2′-deoxyribonucleoside triphosphates (dNTPs), 0.1 mg/mL Bovine serum albumin (BSA), 0.01% NP-40, 10% glycerol, 1 mM dithiothreitol (DTT), 10 mM MgCl2, 25 mM TrisHCl pH 7.8 in the presence of 2.5% DMSO with or without various concentrations (7-point dilution series) of Polq small molecule inhibitors represented by Formula I at 37° C. in a volume of 40 μL.

For a further experiment, the system named is BRCA2-WT HCT116 cells. Nature of the experiment: Survival of BRCA2-WT HCT116 cells. It counts as cell-based. The settings on record: n=3.
The subject of a further experiment is BRCA2-null HCT116 cells. The experiment is described as follows: Survival of BRCA2-null HCT116 cells. The format is cell-based. The note with it: as compared to BRCA2-WT HCT116 cells; n=3.
[2] abbreviates: Polq IC50, 5 nM Polq polymerase domain.

SMILES strings stand for the structures. Where two headings read alike, the source gives them in different places.

With `[2H]C([2H])([2H])N(C(=O)Oc1c(-c2cnn(CC(N)=O)c2)cc(C(F)(F)F)cc1C(F)(F)F)c1ccc(F)cc1` [Example 27, 2-(1-(2-amino-2-oxoethyl)-1H-pyrazol-4-yl)-4,6-bis(trifluoromethyl)phenyl 4-fluorophenyl(methyl-d3)carbamate], the “survival of BRCA2-null DLD1 cells” value in the experiment with BRCA2-null DLD1 cells is given as “significantly reduced”. Moreover, in the experiment with BRCA2-WT DLD1 cells, the “resistance of BRCA2-WT DLD1 cells to Polqi” value is “mostly resistant”. Besides, in experiment [1] (setting [2]), the IC50 was found to be 1.8 nM. For the same molecule, in the experiment with BRCA2-WT HCT116 cells, the “resistance of BRCA2-WT HCT116 cells to Polqi” value was “mostly resistant”. For the same molecule, the “survival of BRCA2-null HCT116 cells” value with BRCA2-null HCT116 cells was “significantly reduced”.
Turning to `[2H]C([2H])([2H])N(C(=O)Oc1c(-c2cn[nH]c2)cc(C(F)(F)F)cc1C(F)(F)F)c1ccc(F)cc1` [Example 26, 2-(1H-pyrazol-4-yl)-4,6-bis(trifluoromethyl)phenyl 4-fluorophenyl(methyl-d3)carbamate], the “survival of BRCA2-null DLD1 cells” value in the experiment on BRCA2-null DLD1 cells is reported as “significantly reduced”. The “resistance of BRCA2-WT DLD1 cells to Polqi” value with BRCA2-WT DLD1 cells is reported as “mostly resistant”. The IC50 in experiment [1] (setting [2]) was determined as 2 nM. Also, in the experiment on BRCA2-WT HCT116 cells, the “resistance of BRCA2-WT HCT116 cells to Polqi” value was “mostly resistant”. Further, the “survival of BRCA2-null HCT116 cells” value with BRCA2-null HCT116 cells is on record as “significantly reduced”.
With `[2H]C([2H])([2H])N(C(=O)Oc1c(-n2cc[nH]c2=O)cc(C(F)(F)F)cc1C(F)(F)F)c1ccc(F)cc1` [Example 10, 2-(2-oxo-2,3-dihydro-1H-imidazol-1-yl)-4,6-bis(trifluoromethyl)phenyl 4-fluorophenyl(methyl-d3)carbamate], in experiment [1] (setting [2]), the IC50 is 2.9 nM.
On to `CN(C(=O)Oc1c(-c2cn(C3CC(O)C3)nn2)cc(C(F)(F)F)cc1C(F)(F)F)c1ccc(F)cc1` (centres unmarked) [Example 17, 2-[1-(3-hydroxycyclobutyl)-1H-1,2,3-triazol-4-yl]-4,6-bis(trifluoromethyl)phenyl N-(4-fluorophenyl)-N-methylcarbamate], for which the IC50 in experiment [1] (5 nM Polq polymerase domain, read-out: Polq IC50) is 1.5 nM.
Turning to `CN(C(=O)Oc1c(-c2cn(CCOCCOCCOCCOCC(=O)Nc3cccc4c3C(=O)N(C3CCC(=O)NC3=O)C4=O)nn2)cc(C(F)(F)F)cc1C(F)(F)F)c1ccc(F)cc1` (centres unmarked) [Example 8, 2-(1-(14-((2-(2,6-dioxopiperidin-3-yl)-1,3-dioxoisoindolin-4-yl)amino)-14-oxo-3,6,9,12-tetraoxatetradecyl)-1H-1,2,3-triazol-4-yl)-4,6-bis(trifluoromethyl)phenyl (4-fluorophenyl) (methyl)carbamate], in experiment [1] (setting [2]), the half-maximal inhibitory concentration (IC50) stood at 4.2 nM.
Same read-out and setting: to `[2H]C([2H])([2H])N(C(=O)Oc1c(-c2cn(C3CN(S(=O)(=O)CCN)C3)nn2)cc(C(F)(F)F)cc1C(F)(F)F)c1ccc(F)c(Cl)c1F` [Example 33, 2-{1-[1-(2-aminoethanesulfonyl)azetidin-3-yl]-1H-1,2,3-triazol-4-yl}-4,6-bis(trifluoromethyl)phenyl N-(3-chloro-2,4-difluorophenyl)-N-(methyl-d3)carbamate] belongs 2.9 nM.

What is called IC50 is the concentration needed to halve the response being measured.
